# Data published in patent publication US20230174988A1, “METHODS FOR INDUCING BILE ACID SULFOTRANSFERASE SULT2A FOR TREATING METABOLIC DISORDERS” (priority 2020, published 2023).
# Entries after “also recorded” stand apart in the source; their conditions may differ. Like-named read-outs stand apart in the source and are kept apart here.
# Columns and labels:
# [1] = target: T1, TGR5 (Homo sapiens, UniProt Q8TDU6); assay: relative TGR5 expression (FIG. 40); format: cell-based
# T1 sequence (Q8TDU6 1-330): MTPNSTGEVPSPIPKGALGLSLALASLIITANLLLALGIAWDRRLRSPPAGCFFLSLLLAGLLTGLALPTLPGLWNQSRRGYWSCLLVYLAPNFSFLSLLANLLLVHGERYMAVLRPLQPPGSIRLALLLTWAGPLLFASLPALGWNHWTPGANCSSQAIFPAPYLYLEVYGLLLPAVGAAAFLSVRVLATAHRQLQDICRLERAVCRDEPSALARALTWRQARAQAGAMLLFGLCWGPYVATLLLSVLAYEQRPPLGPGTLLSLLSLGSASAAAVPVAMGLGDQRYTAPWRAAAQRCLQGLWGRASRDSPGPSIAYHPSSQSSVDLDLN
# From the text: FIG. 40B-D show the relative TGR5 expression of the various compounds.
# [2] = tested on: DIO mice; assay: acute treatment of DIO mice via duodenal and rectal catheters: GLP-1 and blood glucose; format: in vivo, mouse; conditions: HFD-fed (DIO) mice, 1 mg CA7S vs PBS, within 15 min
# [3] = tested on: macrophage; assay: macrophage cell viability; format: cell-based
# [4] = stability after incubation at 37° C. in buffer at physiological pHs (UPLC-MS); format: physicochemical
# [5] = tested on: NF-kB; assay: NF-kB reporter assay in THP1-Blue cells; format: cell-based, human; conditions: LPS-induced inflammation
# [6] = tested on: NCI-H716 cells; assay: intracellular calcium levels in NCI-H716 cells; format: cell-based, human; conditions: NCI-H716 (L-cells)
# [7] = tested on: Caco-2 cells; assay: cell viability of Caco-2 cells; format: cell-based, human; conditions: concentrations up to 3 mM
# [8] = tested on: NCI-H716 cells; assay: GLP-1 secretion in NCI-H716 cells in vitro; format: cell-based, human; conditions: for GLP-1 secretion in vitro by CA7S extracted from cecal contents of SG mice: purified CA7S 500 μM vs DMSO
# From the text: TGR5 agonism also results in elevated intracellular calcium levels^19.
# [9] = tested on: macrophages; assay: IL-10 secretion from macrophages in vitro; format: cell-based
# [10] = inflammation in vivo
# [11] = in vivo; conditions: mouse, 1 mg
# [12] = tested on: SULT2A1; assay: SULT2A1 expression in HepG2 cells (qRT-PCR); format: cell-based; conditions: normalized to human GAPDH
# [13] = tested on: DIO mice; assay: portal vein injection of LCA in DIO mice; format: in vivo, mouse; conditions: LCA 50 μM into portal vein
# [14] = tested on: GF mice; assay: GF mice administered 0.3% LCA (w/w) in chow for 1 week; format: in vivo, mouse; conditions: 0.3% LCA in chow
# [15] = tested on: ASBT; assay: ASBT expression in Caco-2 cells; format: cell-based, human; set-up: dose or concentration left out as unconfirmed; conditions: LCA
# [16] = listed as cholic acid 7-sulfate
# [17] = listed as Cholic acid 7-sulfate
# [18] = HFD-fed mice, acute cholic acid 7-sulfate treatment
structure (smiles),measurement,setting,value
COC(=O)CC[C@@H](C)[C@H]1CC[C@H]2[C@@H]3[C@H](NS(=O)(=O)O)[C@@H](O[Si](C)(C)C(C)(C)C)[C@@H]4C[C@H](O[Si](C)(C)C(C)(C)C)CC[C@]4(C)[C@H]3CC[C@]12C [Compound 3-8],TGR5 expression,[1],induces TGR5 expression
"C[C@H](CCC(=O)O)[C@H]1CC[C@H]2[C@@H]3[C@H](OS(=O)(=O)O)C[C@@H]4C[C@H](O)CC[C@]4(C)[C@H]3C[C@H](O)[C@]12C [CA7S, cholic acid 7-sulfate]",blood glucose levels,[2],reduced blood glucose levels
same,systemic GLP-1 levels,[2],increased systemic GLP-1 levels
same,systemic GLP-1 levels,[2]; [16],induced GLP-1 levels
same,macrophage cell viability,[3],does not affect macrophage cell viability
same,stability at physiological pHs,[4],stable at physiological pHs
same,stability at physiological pHs,[4]; [17],stable in a wide range of pHs
same,NFkB activation,[5],reduces NFkB activation
same,intracellular calcium levels,[6],dose-dependent increase in calcium levels
same,intracellular calcium levels,[6]; [17],increased calcium levels
same,toxicity / viability of intestinal Caco-2 cells,[7],does not affect the viability
same,toxicity / viability of intestinal Caco-2 cells,[7]; [17],no toxicity
same,GLP-1 secretion in vitro,[8],induced GLP-1 secretion to a similar degree as TDCA in a dose-dependent manner
same,GLP-1 secretion in vitro,[8]; [17],induces GLP-1 secretion in vitro better than the known GLP-1 inducer TDCA
same,GLP-1 secretion in vitro by CA7S extracted from cecal contents of SG mice,[8],induced GLP-1 secretion in vitro
same,GLP-1 secretion in vitro by CA7S extracted from cecal contents of SG mice,[8]; [16],exhibit activity inducing GLP-1 secretion in vitro
same,IL-10 secretion,[9],induces secretion of the anti-inflammatory cytokine IL-10
same,"Cholic acid 7-sulfate concentration (mean ± SEM), Cecum",[18],2577 ± 185.3 pmol/mg
same,"Cholic acid 7-sulfate concentration (mean ± SEM), Hepatic portal vein",[18],6.128 ± 2.111 pmol/mg
same,CA7S in cecal contents,"administration of 1 mg, on average",2500 pmol/mg wet mass
same,leak into systemic circulation and portal vein (gut restriction),"ectopic introduction in mice, listed as cholic acid 7-sulfate",only minor amounts
same,inflammation in vivo,[10],improves inflammation in vivo
same,concentration at 15 min,"[11]; Cholic acid 7-sulfate concentration (mean ± SEM), Blood, HFD-fed mice, acute cholic acid 7-sulfate treatment",0.495 ± 0.167 µM
same,concentration at 15 min,"[11]; cholic acid 7-sulfate in the cecum, dosing with 1 mg",~2500 µM
COC(=O)CC[C@@H](C)[C@H]1CC[C@H]2[C@@H]3[C@H](OP(=O)(OCc4ccccc4)OCc4ccccc4)C[C@@H]4C[C@H](O[Si](C)(C)C(C)(C)C)CC[C@]4(C)[C@H]3CC[C@]12C [Compound 9-2],TGR5 expression,[1],induces TGR5 expression
"C[C@H](CCC(=O)O)[C@H]1CC[C@H]2[C@@H]3[C@H](O)C[C@@H]4C[C@H](O)CC[C@]4(C)[C@H]3CC[C@]12C [CDCA, chenodeoxycholic acid]",SULT2A1 expression,[12],did not induce SULT2A1 expression at all concentrations tested
"C[C@H](CCC(=O)O)[C@H]1CC[C@H]2[C@@H]3CC[C@@H]4C[C@H](O)CC[C@]4(C)[C@H]3CC[C@]12C [LCA, 3α-hydroxy-5β-cholan-24-oic acid]",CA7S levels in the gallbladder,[13],increase in CA7S levels in the gallbladder
same,SULT2A1 expression level in mouse liver,[13]; two hours after injection,significant increase
same,VDR expression level in mouse liver,[13]; two hours after injection,significant increase
same,Asbt expression in SI and DI,[14],inhibited expression of Asbt in SI and DI
same,VDR expression in liver,[14],increased expression
same,mSult2A1 expression in liver,[14],increased expression
same,LCA levels in intestine after feeding,[14]; 1 week,"accumulation of LCA in the proximal small intestine (SI), distal ileum (DI), and cecum"
same,CA7S production and accumulation,[14]; gallbladder and distal ileum,induced CA7S production and accumulation in the gallbladder (GB) and the DI
same,ASBT expression,[15],inhibited expression of ASBT
same,SULT2A1 expression,[12],induced SULT2A1; also recorded: could induce SULT2A1 expression in a dose dependent manner
"C[C@H](CCC(=O)NCCS(=O)(=O)O)[C@H]1CC[C@H]2[C@@H]3CC[C@@H]4C[C@H](O)CC[C@]4(C)[C@H]3C[C@H](O)[C@]12C [TCDCA, taurodeoxycholic acid]",SULT2A1 expression,[12],did not induce SULT2A1 expression at all concentrations tested
"C[C@H](CCC(=O)O)[C@H]1CC[C@H]2[C@@H]3[C@H](OP(=O)(O)O)C[C@@H]4C[C@H](O)CC[C@]4(C)[C@H]3C[C@H](O)[C@]12C [Compound 9, cholic acid-7-phosphate]",TGR5 expression,[1],induces TGR5 expression
"C[C@H](CCC(=O)O)[C@H]1CC[C@H]2[C@@H]3[C@H](O)C[C@@H]4C[C@H](O)CC[C@]4(C)[C@H]3C[C@H](O)[C@]12C [CA, cholic acid, reference compound]",GLP-1 secretion in vitro,[8],had no effect on GLP-1 secretion
same,GLP-1 secretion in vitro,[8]; listed as cholic acid,had no effect
same,SULT2A1 expression,[12],did not induce SULT2A1 expression at all concentrations tested
